Among the test systems are OVCAR-3 ovarian; HCC-2998 colon; KM12 colon; RXF 393 renal; K-562 leukemia; TK-10 renal; SR leukemia; HL-60(TB) leukemia; SF-539 CNS; SK-MEL-28 melanoma.
Assay in all cases: growth of human tumour cells (NCI), 48 h

Molecules are shown by their SMILES.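 Assay format: 96-well plates, 48-hour exposure. GI50: concentration for 50% inhibition of growth. TGI is the concentration that stops growth completely.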 Where only a bound is given, the exact number is not on record here.

As for `COc1cc(Cn2c(-c3nonc3N)nc3ccccc32)ccc1C`, the GI50 was 0.328 µM with OVCAR-3 ovarian; 1.42 µM with HCC-2998 colon; 0.468 µM with KM12 colon; 0.304 µM with RXF 393 renal; 0.375 µM in the assay with K-562 leukemia; 1.09 µM in the assay with TK-10 renal. For the same compound, the GI50 in the assay with SR leukemia was 0.516 µM; with HL-60(TB) leukemia, 0.345 µM; in the assay on SF-539 CNS, 0.226 µM; with SK-MEL-28 melanoma, 2.91 µM. Also, the TGI was 0.906 µM in the assay with OVCAR-3 ovarian; > 100 µM in the assay on HCC-2998 colon; > 100 µM with KM12 colon; 3.35 µM in the assay with RXF 393 renal; > 100 µM with K-562 leukemia; 30 µM with TK-10 renal. In addition, the TGI in the assay on SR leukemia was > 100 µM; in the assay with HL-60(TB) leukemia it was 50.8 µM; in the assay on SF-539 CNS, 0.663 µM; in the assay with SK-MEL-28 melanoma it was > 62.7 µM.
For the compound `Cn1cc(CNCC2CCN(c3ncc(C(=O)NO)cn3)CC2)c2ccccc21`, the GI50 was 0.0158 µM in the assay on OVCAR-3 ovarian; 0.0141 µM in the assay with HCC-2998 colon; 0.0215 µM in the assay with KM12 colon; < 0.0107 µM in the assay on RXF 393 renal; < 0.012 µM in the assay with K-562 leukemia; < 0.0107 µM in the assay on TK-10 renal. The GI50 was < 0.0124 µM with SR leukemia, 0.0242 µM in the assay on HL-60(TB) leukemia, 0.021 µM in the assay with SF-539 CNS and 0.0122 µM in the assay with SK-MEL-28 melanoma. Besides, the TGI was 0.126 µM with OVCAR-3 ovarian; 0.0837 µM with HCC-2998 colon; 0.589 µM with KM12 colon; 0.0385 µM in the assay with RXF 393 renal; > 46.9 µM in the assay on K-562 leukemia; 0.0683 µM in the assay on TK-10 renal. Besides, the TGI in the assay with SR leukemia is > 53.9 µM; with HL-60(TB) leukemia, 17.5 µM; in the assay on SF-539 CNS it was 13.4 µM; in the assay with SK-MEL-28 melanoma, 0.102 µM.
Regarding `CCOC(=O)[C@H]1Nc2ccc(OC)cc2C2c3ccccc3CC21` (stereo partly drawn), the TGI in the assay with OVCAR-3 ovarian, with HCC-2998 colon, with KM12 colon, in the assay with RXF 393 renal, in the assay with K-562 leukemia and in the assay on TK-10 renal was > 100 µM throughout. Moreover, the TGI with SR leukemia, in the assay with SF-539 CNS and with SK-MEL-28 melanoma was > 100 µM in each case.
For the compound `COC1CC(OC(=O)c2ccccc2)C(OC(=O)c2ccccc2)C(C)O1` (stereo not drawn), the TGI in the assay with OVCAR-3 ovarian, with HCC-2998 colon, in the assay with KM12 colon, with RXF 393 renal, in the assay on K-562 leukemia and in the assay with TK-10 renal was > 100 µM in each case. The TGI in the assay on SR leukemia, in the assay with HL-60(TB) leukemia, with SF-539 CNS and in the assay with SK-MEL-28 melanoma was > 100 µM in each case.
For `CCOC(=O)C(/C=N\C(=S)Nc1ccc(OCC)cc1)=C(/O)c1ccccc1`, the TGI in the assay with OVCAR-3 ovarian, with HCC-2998 colon, in the assay on KM12 colon, in the assay with RXF 393 renal, in the assay on K-562 leukemia and with SR leukemia was > 100 µM throughout. Also, the TGI with HL-60(TB) leukemia, in the assay on SF-539 CNS and in the assay on SK-MEL-28 melanoma was > 100 µM each time.
Regarding `Cc1cc2c(=O)c3ccccc3[nH]c2c(C(=O)O)c1C`, the TGI in the assay on OVCAR-3 ovarian, with HCC-2998 colon, with KM12 colon, with RXF 393 renal, with K-562 leukemia and in the assay on SR leukemia was > 100 µM throughout. Besides, the TGI in the assay on HL-60(TB) leukemia, in the assay with SF-539 CNS and in the assay with SK-MEL-28 melanoma was > 100 µM in each case.
In the case of `CCOC(=O)C(=O)Nc1c(C(C)C)cccc1C(C)C`, the TGI in the assay with OVCAR-3 ovarian, with HCC-2998 colon, with KM12 colon, in the assay on RXF 393 renal, in the assay with TK-10 renal and with SR leukemia was > 100 µM each time. Besides, the TGI in the assay with HL-60(TB) leukemia, in the assay with SF-539 CNS and with SK-MEL-28 melanoma was > 100 µM each time.
In the case of `CCCCCCN(CCCCCC)CC(O)c1ccc2c3c(cccc13)CC2` (stereo not drawn), the GI50 with OVCAR-3 ovarian is 8.96 µM; in the assay with HCC-2998 colon, 3.07 µM; in the assay with KM12 colon, 5.3 µM; in the assay with RXF 393 renal, 2.39 µM; with TK-10 renal it was 10.7 µM; with SR leukemia, 3.32 µM. Besides, the GI50 in the assay with HL-60(TB) leukemia was 2.16 µM; in the assay on SF-539 CNS, 3.83 µM; in the assay with SK-MEL-28 melanoma, 11.2 µM. In addition, the TGI is 21.6 µM with OVCAR-3 ovarian; 9.67 µM with HCC-2998 colon; 18.9 µM in the assay on KM12 colon; 7.21 µM in the assay with RXF 393 renal; 23.2 µM with TK-10 renal; 13.8 µM in the assay on SR leukemia. In addition, the TGI in the assay on HL-60(TB) leukemia was found to be 6.16 µM; in the assay with SF-539 CNS, 15.2 µM; in the assay with SK-MEL-28 melanoma it was 24.9 µM.
`Cc1cc(=O)oc2cc(O)c(CN(C)CC(=O)O)cc12`: the TGI in the assay with HCC-2998 colon, in the assay on KM12 colon, in the assay with RXF 393 renal, in the assay on K-562 leukemia, in the assay on TK-10 renal and in the assay with SR leukemia was > 100 µM in each case. Moreover, the TGI in the assay with HL-60(TB) leukemia, with SF-539 CNS and in the assay with SK-MEL-28 melanoma was > 100 µM in each case.
For the compound `COc1cc(Br)c(C=Nc2cccc3ccc(OS(=O)(=O)c4cccc([N+](=O)[O-])c4)cc23)cc1OC`, the TGI is > 100 µM in the assay on OVCAR-3 ovarian; > 100 µM in the assay on HCC-2998 colon; > 100 µM with KM12 colon; 43.5 µM with RXF 393 renal; > 100 µM in the assay on K-562 leukemia; > 100 µM in the assay on SR leukemia. The figures for the TGI in the assay with SF-539 CNS and in the assay with SK-MEL-28 melanoma were 39.5 µM and > 100 µM, respectively.
As to `O=C1Nc2cccc3cc(NCC(O)CCl)cc1c23` (stereo not drawn), the TGI with OVCAR-3 ovarian, with HCC-2998 colon, with KM12 colon, with RXF 393 renal, in the assay with K-562 leukemia and with TK-10 renal was > 100 µM throughout. In addition, the TGI in the assay on SR leukemia was 48 µM; in the assay with HL-60(TB) leukemia, > 100 µM; in the assay with SK-MEL-28 melanoma it was > 100 µM.
As for `BrC1(Br)C2/C=C\CCCCC21` (stereo not drawn), the TGI in the assay on HCC-2998 colon, in the assay on KM12 colon, in the assay with RXF 393 renal, with K-562 leukemia, in the assay on TK-10 renal and in the assay with SR leukemia was > 100 µM each time. Also, the TGI with HL-60(TB) leukemia, in the assay with SF-539 CNS and in the assay on SK-MEL-28 melanoma was > 100 µM each time.
`C[N+]1(C)C/C(=C\c2ccncc2)C(=O)/C(=C/c2ccncc2)C1`: the TGI in the assay on OVCAR-3 ovarian, in the assay with HCC-2998 colon, in the assay with KM12 colon, in the assay with RXF 393 renal, in the assay on TK-10 renal and with SR leukemia was > 100 µM throughout. The values for the TGI in the assay with HL-60(TB) leukemia, in the assay on SF-539 CNS and in the assay with SK-MEL-28 melanoma were 79.5 µM, > 100 µM and > 100 µM, respectively.
